Experimental data published in publication PMC8011784, “Chronic peptide-based GIP receptor inhibition exhibits modest glucose metabolic changes in mice when administered either alone or combined with GLP-1 agonism” (PLoS ONE, 2021).

Test system: DIO mice
Assay: Chronic GIPA-2 study: body weight and food intake in DIO mice
Type: in vivo, mouse
Conditions: 28 days, HFD; liraglutide 0.2 mg/kg SC daily, GIPA-2 10 mg/kg SC daily; n = 10; vs vehicle (combination: vs liraglutide)
Description: For studying the chronic effects of GIPA-2, male C57BL/6JRj mice (n = 40) were fed a HFD (SSNIFF® diet #12492) for 43 weeks. DIO mice were randomized (n = 10 per group) based on baseline blood glucose and body weight. Liraglutide was dissolved in PBS plus 0.1% BSA (Vehicle1) and GIPA-2 in PBS (vehicle 2). Mice received one of the following four treatments daily for 28 days while still maintained on HFD: (1) vehicle 1 (SC) and vehicle 2 (SC); (2) 0.2 mg/kg liraglutide (SC) and vehicle 2; (3) vehicle 1 (SC) and 10 mg/kg GIPA-2 (SC); and (4) 0.2 mg/kg liraglutide (SC) plus 10 mg/kg GIPA-2 (SC). […] Fasted (4 hrs) blood glucose and insulin were measured on study day -4, 10 and 26. […] Blood glucose was measured before their daily dosing and at 0, 15, 30 60, 120, 180 and 240 min after glucose administration. […] Blood glucose was measured before their daily dosing and at 0, 15, 30 60, 120, 180 min after glucose administration. […]
Fig 2 Effects of chronic GIPR antagonism on body weight, food intake, and fasting blood glucose and insulin. […] Statistical analysis was calculated using two-way ANOVA with Tukey’s post-hoc test and one-way ANOVA for AUC with Dunnett’s post-hoc test. *: p< 0.05, **: p < 0.01, ***: p < 0.001, ****: p<0.0001 compared to vehicle.

liraglutide
body weight: reduced both body weight and food intake | cumulative food intake: reduced both body weight and food intake
